According to the kinase profiling compilation of Christmann-Franck et al. (2016):

Key:
Assay in all cases: radiometric filter-binding kinase assay, Kinaseprofiler
[1] = system: PRKD1 (human), Q15139 [R135A]; conditions: ATP 45 µM
[2] = system: MET (human), P08581 [A1209G/V1290L]; conditions: ATP 45 µM
[3] = system: TGFBR1 (human), P36897 [T204D]; conditions: ATP 10 µM
[4] = system: FLT4 (human), P35916 [V1128L/H1146R]; conditions: ATP 200 µM
[5] = system: BLK (human), P51451 [M278V]; conditions: ATP 45 µM
Chain of BLK (human), P51451 [M278V] (P51451 whole entry, looked up, stated change not applied): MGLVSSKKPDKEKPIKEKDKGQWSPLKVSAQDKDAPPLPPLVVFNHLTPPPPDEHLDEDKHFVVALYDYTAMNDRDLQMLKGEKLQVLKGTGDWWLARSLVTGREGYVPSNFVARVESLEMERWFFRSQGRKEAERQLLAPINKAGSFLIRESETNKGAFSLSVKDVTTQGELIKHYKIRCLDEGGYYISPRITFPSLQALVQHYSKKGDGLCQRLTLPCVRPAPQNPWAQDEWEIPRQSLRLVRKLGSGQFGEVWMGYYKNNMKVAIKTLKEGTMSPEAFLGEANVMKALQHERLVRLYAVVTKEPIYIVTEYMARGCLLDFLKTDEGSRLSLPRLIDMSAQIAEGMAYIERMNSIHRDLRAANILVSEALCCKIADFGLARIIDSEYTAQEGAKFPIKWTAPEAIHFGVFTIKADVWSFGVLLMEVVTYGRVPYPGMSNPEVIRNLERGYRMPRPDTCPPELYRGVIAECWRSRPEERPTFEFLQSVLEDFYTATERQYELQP

[6] = system: PAK2 (human), Q13177 [L150F, P225T, V383I; A339 del]; conditions: ATP 90 µM
Chain of PAK2 (human), Q13177 [L150F, P225T, V383I; A339 del] (Q13177 whole entry, looked up, stated change not applied): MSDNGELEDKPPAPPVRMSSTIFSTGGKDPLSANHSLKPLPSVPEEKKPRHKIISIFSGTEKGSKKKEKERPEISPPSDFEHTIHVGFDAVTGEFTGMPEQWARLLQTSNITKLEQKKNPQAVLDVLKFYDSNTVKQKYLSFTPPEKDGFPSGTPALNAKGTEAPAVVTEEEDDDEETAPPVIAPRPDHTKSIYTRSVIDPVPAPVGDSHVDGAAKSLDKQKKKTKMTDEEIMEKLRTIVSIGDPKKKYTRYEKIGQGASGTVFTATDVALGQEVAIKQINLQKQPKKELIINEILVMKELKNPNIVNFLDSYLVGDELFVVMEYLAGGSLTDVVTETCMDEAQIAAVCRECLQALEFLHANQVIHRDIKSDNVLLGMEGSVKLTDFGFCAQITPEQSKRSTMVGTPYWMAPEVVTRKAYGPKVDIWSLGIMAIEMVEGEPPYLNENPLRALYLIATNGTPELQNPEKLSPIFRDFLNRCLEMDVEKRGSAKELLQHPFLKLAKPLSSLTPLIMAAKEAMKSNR

[7] = system: HIPK2 (human), Q9H2X6 [I471N]; conditions: ATP 10 µM
Chain of HIPK2 (human), Q9H2X6 [I471N] (Q9H2X6 whole entry, looked up, stated change not applied): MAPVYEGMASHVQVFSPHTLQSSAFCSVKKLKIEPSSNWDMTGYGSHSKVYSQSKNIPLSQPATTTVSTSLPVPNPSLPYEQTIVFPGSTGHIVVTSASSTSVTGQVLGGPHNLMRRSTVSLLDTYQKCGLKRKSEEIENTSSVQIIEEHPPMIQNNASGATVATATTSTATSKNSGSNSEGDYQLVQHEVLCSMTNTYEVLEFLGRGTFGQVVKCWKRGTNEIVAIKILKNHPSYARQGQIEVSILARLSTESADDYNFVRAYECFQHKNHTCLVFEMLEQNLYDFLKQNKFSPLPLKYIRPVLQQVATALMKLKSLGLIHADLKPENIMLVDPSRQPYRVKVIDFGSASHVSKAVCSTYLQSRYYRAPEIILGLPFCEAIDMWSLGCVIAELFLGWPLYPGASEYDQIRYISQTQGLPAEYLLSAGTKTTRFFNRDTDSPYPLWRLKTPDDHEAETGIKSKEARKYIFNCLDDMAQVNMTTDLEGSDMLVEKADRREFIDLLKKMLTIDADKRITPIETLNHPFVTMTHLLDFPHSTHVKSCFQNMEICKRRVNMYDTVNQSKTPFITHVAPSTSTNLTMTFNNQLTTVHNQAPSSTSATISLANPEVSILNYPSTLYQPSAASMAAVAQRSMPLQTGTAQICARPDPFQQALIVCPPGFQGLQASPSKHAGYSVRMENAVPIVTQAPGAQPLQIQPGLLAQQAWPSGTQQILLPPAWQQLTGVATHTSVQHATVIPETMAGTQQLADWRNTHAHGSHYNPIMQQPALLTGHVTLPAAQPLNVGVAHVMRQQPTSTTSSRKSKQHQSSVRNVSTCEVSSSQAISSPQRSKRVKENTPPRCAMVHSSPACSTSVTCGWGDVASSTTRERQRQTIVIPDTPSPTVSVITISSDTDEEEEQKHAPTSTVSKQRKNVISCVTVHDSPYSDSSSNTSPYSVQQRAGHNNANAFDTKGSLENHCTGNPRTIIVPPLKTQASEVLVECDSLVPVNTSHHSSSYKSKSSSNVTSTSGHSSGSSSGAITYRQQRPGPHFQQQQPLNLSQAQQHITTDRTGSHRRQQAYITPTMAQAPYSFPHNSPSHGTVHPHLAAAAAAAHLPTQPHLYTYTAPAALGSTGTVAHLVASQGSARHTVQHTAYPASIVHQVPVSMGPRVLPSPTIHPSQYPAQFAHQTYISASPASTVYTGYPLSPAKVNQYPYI

Chain of PRKD1 (human), Q15139 [R135A] (Q15139 whole entry, looked up, stated change not applied): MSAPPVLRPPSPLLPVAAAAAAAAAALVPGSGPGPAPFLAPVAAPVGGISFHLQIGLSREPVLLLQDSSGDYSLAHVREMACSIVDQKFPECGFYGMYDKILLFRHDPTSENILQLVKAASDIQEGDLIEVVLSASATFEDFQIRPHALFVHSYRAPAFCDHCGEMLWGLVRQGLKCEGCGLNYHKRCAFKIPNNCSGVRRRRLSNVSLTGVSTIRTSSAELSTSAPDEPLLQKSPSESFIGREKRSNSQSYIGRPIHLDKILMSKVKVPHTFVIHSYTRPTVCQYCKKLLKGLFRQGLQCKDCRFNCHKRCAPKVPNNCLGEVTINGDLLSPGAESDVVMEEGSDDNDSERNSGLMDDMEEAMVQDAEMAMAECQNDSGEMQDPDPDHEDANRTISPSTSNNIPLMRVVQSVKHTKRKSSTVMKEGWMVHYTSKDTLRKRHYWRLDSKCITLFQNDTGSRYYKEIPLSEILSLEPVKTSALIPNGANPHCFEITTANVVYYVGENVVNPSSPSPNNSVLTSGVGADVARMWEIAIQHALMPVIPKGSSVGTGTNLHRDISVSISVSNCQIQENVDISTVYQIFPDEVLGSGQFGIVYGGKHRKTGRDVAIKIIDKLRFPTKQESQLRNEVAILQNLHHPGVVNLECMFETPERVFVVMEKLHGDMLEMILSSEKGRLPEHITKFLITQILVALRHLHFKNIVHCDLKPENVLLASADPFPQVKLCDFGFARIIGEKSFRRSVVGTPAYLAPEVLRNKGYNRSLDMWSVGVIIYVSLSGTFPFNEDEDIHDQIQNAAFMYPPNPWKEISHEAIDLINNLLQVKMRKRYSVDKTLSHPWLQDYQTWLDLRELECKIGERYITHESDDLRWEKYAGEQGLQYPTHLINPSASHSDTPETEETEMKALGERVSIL
Chain of TGFBR1 (human), P36897 [T204D] (P36897 whole entry T204D, looked up): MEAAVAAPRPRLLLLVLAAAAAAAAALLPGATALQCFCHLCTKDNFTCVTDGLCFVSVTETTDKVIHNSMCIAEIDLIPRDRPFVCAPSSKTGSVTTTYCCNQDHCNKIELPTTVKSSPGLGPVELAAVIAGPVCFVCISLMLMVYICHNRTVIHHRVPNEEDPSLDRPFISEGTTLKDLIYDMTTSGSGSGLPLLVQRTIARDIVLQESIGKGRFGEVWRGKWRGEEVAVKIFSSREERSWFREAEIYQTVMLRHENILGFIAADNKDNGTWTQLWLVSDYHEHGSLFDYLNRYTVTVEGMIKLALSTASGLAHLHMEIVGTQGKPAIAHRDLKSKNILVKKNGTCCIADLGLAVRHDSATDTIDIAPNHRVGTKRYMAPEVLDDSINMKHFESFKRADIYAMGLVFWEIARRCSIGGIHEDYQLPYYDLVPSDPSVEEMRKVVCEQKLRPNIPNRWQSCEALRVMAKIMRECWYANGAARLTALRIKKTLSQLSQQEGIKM
Chain of FLT4 (human), P35916 [V1128L/H1146R] (P35916 whole entry, looked up, stated change not applied): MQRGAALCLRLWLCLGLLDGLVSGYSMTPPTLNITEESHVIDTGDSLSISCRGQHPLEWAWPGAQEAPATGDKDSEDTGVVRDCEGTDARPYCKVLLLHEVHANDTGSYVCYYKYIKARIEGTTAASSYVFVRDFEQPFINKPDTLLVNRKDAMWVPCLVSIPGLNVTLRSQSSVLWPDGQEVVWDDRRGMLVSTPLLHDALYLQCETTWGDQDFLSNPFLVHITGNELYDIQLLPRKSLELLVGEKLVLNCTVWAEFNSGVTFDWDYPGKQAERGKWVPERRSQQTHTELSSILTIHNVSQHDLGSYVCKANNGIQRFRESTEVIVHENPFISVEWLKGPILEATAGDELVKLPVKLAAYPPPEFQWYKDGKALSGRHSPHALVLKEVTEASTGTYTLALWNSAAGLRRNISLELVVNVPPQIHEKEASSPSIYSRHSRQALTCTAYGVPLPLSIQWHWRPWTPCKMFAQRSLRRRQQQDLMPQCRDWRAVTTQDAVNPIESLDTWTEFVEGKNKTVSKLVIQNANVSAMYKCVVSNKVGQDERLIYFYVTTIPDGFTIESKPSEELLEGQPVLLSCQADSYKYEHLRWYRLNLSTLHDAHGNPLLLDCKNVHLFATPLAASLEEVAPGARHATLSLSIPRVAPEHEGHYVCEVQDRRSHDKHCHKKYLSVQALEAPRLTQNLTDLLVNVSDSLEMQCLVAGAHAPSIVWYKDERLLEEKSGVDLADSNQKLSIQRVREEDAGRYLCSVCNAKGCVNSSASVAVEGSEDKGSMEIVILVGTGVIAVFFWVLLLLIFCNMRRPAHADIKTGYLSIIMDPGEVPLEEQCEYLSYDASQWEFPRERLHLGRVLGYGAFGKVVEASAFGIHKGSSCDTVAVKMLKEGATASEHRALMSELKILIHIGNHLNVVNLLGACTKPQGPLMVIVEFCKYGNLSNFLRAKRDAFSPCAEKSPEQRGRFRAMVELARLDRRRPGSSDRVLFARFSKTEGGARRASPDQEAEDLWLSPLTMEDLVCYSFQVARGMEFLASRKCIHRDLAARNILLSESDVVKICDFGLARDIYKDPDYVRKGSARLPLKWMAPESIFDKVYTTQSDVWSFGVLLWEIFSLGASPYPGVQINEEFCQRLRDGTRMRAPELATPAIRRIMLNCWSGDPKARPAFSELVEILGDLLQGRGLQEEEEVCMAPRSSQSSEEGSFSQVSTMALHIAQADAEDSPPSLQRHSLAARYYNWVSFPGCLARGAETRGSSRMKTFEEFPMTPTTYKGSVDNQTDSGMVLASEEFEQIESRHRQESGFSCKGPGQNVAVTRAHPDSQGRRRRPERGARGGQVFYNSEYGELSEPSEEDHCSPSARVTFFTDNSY

Row | Compound | residual activity ([1]; compound 1.0 µM) | residual activity ([1]; compound 10.0 µM) | residual activity ([2]; compound 1.0 µM) | residual activity ([2]; compound 10.0 µM) | residual activity ([3]; compound 1.0 µM) | residual activity ([3]; compound 10.0 µM) | residual activity ([4]; compound 1.0 µM) | residual activity ([4]; compound 10.0 µM) | residual activity ([5]; compound 1.0 µM) | residual activity ([5]; compound 10.0 µM) | residual activity ([6]; compound 1.0 µM) | residual activity ([6]; compound 10.0 µM) | residual activity ([7]; compound 1.0 µM) | residual activity ([7]; compound 10.0 µM)
1 | O=C1Nc2ccccc2/C1=C1\Nc2ccccc2\C1=N/O | 113% | 65% | 86% | 13% | 104% | 73% | -1% | 1% | 11% | 0% | 103% | 54% | 48% | 8%
2 | O=C1c2ccccc2-c2n[nH]c3cccc1c23 | 32% | -1% | 87% | 75% | 88% | 74% | 2% | 0% | 97% | 45% | 96% | 86% | 55% | 15%
3 | O=C(Nc1cccc(Nc2nccc(Nc3cccc(C(F)(F)F)c3)n2)c1)C1CC1 | – | – | – | – | – | – | – | – | – | – | 100% | – | – | –
4 | CN[C@@H]1C[C@H]2O[C@@](C)([C@@H]1OC)n1c3ccccc3c3c4c(c5c6ccccc6n2c5c31)C(=O)NC4 | – | – | – | – | – | – | – | – | – | – | – | – | 52% | –
